# Assay results reported in ChEMBL document CHEMBL1201862, “PubChem BioAssay data set” (2004).
# Activity calls are given as the source filed them.
# Tests used:
# [1] = molecular target: Glyceraldehyde-3-phosphate dehydrogenase (Homo sapiens, UniProt P04406)
# Bcl-2-related protein A1 [2] = molecular target: T1, Bcl-2-related protein A1 (Mus musculus, UniProt Q07440); assay: Bfl-1 inhibitors blocking BH3 peptide binding, confirmation, biochemical, TR-FRET, mouse Bfl-1 (AID 621);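 also: TR-FRET binding of GST-Bfl-1 to FITC-labelled Bid peptide via terbium antibody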
# T1 sequence (Q07440 whole entry): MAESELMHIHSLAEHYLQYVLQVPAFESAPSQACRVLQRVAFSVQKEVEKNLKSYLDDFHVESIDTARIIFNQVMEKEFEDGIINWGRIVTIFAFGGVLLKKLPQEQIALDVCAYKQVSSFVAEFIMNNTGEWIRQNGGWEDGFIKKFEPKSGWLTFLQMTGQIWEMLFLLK
# Bcl-2-related protein A1 [3] = molecular target: T1, Bcl-2-related protein A1; assay: Bfl-1 binding inhibitors, SAR follow-up, biochemical, fluorescence polarization (AID 1070)
# [4] = molecular target: Heat shock protein HSP 90-alpha (Homo sapiens, UniProt P07900); assay: Luminescence-based dose response biochemical high throughput screening assay for inhibitors of the Heat Shock Protein 90 (HSP90). [Related pubchem assays: 1831 (Summary AID.), 1846 (Confirmation screen.), 1789 (Primary screen.)]
# [5] = molecular target: T2, RNA-binding protein pos-1 (Caenorhabditis elegans, UniProt G5EF15); assay: inhibitors of POS-1/mex-3 RNA binding, dose response, biochemical, fluorescence polarization (AID 1964);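 also: purified POS-1 fused to maltose binding protein made in E. coli; potency of compounds blocking POS-1 binding to fluorescent RNA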
# T2 sequence (G5EF15 whole entry): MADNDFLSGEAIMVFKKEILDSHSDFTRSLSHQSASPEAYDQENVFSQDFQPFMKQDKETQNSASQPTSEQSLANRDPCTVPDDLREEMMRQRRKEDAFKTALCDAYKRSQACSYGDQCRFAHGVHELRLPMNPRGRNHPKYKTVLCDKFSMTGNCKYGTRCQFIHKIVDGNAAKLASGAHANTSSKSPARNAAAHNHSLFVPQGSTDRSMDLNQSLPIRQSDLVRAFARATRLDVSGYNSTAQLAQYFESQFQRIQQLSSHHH
# [6] = molecular target: T3, Zinc finger protein mex-5 (Caenorhabditis elegans, UniProt Q9XUB2); assay: MEX-5/TCR-2 RNA interaction inhibitors, dose response, biochemical, C. elegans, fluorescence polarization (AID 1960)
# T3 sequence (Q9XUB2 whole entry): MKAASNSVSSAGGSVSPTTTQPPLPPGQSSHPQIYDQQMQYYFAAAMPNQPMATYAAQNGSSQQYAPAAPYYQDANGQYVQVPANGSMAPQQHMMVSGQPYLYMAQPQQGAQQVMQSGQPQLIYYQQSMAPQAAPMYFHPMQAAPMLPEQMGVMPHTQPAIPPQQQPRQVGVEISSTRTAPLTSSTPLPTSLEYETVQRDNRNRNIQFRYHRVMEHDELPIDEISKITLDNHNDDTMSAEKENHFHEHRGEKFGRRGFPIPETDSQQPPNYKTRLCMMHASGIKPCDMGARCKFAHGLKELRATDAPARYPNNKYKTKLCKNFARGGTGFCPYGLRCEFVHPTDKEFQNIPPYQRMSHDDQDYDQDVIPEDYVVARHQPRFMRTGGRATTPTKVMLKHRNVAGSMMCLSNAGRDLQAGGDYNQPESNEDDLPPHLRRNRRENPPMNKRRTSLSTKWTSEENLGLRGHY
# Estrogen receptor beta = Estrogen receptor beta (Homo sapiens, UniProt Q92731);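 also: recombinant ER-beta bound to coactivator SRC1 peptide in presence of estradiol agonist; inhibitors block coactivator peptide binding and lower the FRET signal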
# [7] = molecular target: Bifunctional protein GlmU (Mycobacterium tuberculosis, UniProt P9WMN3); assay: Inhibitors of Mycobacterial Glucosamine-1-phosphate acetyl transferase (GlmU). Secondary screen.; parameters: species or system Mycobacterium tuberculosis H37Rv
# Chain of Bifunctional protein GlmU (P9WMN3 whole entry): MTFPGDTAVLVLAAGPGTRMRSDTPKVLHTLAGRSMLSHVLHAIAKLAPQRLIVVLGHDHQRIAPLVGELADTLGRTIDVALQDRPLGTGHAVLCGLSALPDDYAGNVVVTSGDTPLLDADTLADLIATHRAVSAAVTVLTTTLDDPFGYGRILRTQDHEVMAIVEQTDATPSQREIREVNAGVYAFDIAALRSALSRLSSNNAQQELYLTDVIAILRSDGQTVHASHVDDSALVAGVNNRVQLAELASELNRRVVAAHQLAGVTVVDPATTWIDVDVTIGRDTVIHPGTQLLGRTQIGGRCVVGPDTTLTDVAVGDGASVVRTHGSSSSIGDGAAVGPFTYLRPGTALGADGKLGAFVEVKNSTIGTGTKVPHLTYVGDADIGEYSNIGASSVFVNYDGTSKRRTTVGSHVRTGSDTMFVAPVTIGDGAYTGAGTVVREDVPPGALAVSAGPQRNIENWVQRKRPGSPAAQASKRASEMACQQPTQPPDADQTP
# Chain of Glyceraldehyde-3-phosphate dehydrogenase (P04406 whole entry): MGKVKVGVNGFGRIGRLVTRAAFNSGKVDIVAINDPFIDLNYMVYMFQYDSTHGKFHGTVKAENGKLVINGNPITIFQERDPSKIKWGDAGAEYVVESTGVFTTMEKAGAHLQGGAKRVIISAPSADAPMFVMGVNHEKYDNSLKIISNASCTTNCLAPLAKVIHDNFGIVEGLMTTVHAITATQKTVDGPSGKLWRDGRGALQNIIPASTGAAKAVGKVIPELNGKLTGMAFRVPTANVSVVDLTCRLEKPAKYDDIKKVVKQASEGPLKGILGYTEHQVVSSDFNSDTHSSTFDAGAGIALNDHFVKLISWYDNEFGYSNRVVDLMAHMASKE
# Chain of Estrogen receptor beta (Q92731 whole entry): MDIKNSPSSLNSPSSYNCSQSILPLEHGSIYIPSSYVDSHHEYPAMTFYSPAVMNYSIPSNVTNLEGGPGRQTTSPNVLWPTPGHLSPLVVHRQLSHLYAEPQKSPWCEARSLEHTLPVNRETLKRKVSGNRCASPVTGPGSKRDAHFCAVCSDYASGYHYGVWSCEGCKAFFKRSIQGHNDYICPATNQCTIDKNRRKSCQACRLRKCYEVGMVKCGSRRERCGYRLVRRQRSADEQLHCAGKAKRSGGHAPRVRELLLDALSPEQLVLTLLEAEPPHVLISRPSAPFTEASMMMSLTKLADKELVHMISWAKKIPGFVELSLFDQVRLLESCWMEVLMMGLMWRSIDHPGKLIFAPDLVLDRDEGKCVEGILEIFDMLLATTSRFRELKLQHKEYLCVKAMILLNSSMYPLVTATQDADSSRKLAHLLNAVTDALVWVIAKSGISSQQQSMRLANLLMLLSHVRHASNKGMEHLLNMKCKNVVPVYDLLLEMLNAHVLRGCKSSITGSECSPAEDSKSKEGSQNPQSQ
Structure (SMILES),IC50 [1],IC50 (Bcl-2-related protein A1 [2]),IC50 (Bcl-2-related protein A1 [3]),IC50 [4],further results
CN1CCN(C2=C(Cl)C(=O)N(c3cccc([N+](=O)[O-])c3)C2=O)CC1,> 100 µM (not active),3.94 µM (active),6.79 µM (active),–,–
Cc1cccc(N2C(=O)C(Cl)=C(N3CCN(CCOCCO)CC3)C2=O)c1,> 100 µM (not active),6.43 µM (active),4.46 µM (active),–,–
COCC(C)n1c(C)cc(C(=O)Cn2nc(C(=O)O)c3ccccc3c2=O)c1C (configuration not stated),–,–,–,11.4 µM (not active),–
O=c1oc2ccc(Cl)cc2nc1/C=C(\O)c1cccs1,–,–,–,2.2 µM (active),EC50 [5]: 230 µM (active); EC50 [6]: 153 µM (active)
Cc1c(Cl)cccc1NC(=O)CC1SCCNC1=O (configuration not stated),–,–,–,–,IC50 (Estrogen receptor beta): > 50 µM (not active)
O=C(O)C1C2C=CC(CC2)C1C(=O)O (configuration not stated),–,–,–,–,IC50 [7]: 114 µM (active)
